Data as given in article PMC5485063 (Chemmedchem, 2017).
Values after ≈ are worked out from the molar mass of the structure shown.

What was measured:
Caco2 = assay: Bidirectional Caco2 permeability assay, 24‐well format; details: for P app A→B: Caco2, apical to basolateral; for permeability in either direction (P app A→B and P app B→A): Caco2, incubation period 90 min, possibly precipitation and sticking to plastics
[1] = logD by reversed‐phase HPLC; details: pH 7.5
[2] = High‐throughput metabolic stability assay, pooled human liver microsomes; details: predicted hepatic metabolic (blood) clearance
rat hepatocytes = assay: High‐throughput metabolic stability assay, freshly harvested rat hepatocytes; details: predicted hepatic metabolic (blood) clearance
A2780 cells = assay: In vitro proliferation assay, cultivated A2780 cells; format: cell-based; details: Homo sapiens, A2780, read-out: IC50 A2780
[3] = Bidirectional Caco2 permeability assay, 24‐well format; details: human
CDK6/CycD3 = CDK6/CycD3 (Homo sapiens, UniProt Q00534); assay: Biochemical assay at ProQinase, CDK6/CycD3
MOLM‐13 cells = assay: In vitro proliferation assay, MOLM‐13 cells; format: cell-based; details: Homo sapiens, MOLM-13, read-out: IC50 MOLM‐13
CDK4/CycD3 = CDK4/CycD3 (Homo sapiens, UniProt P11802); assay: Biochemical assay at ProQinase, CDK4/CycD3
MCF7 cells = assay: In vitro proliferation assay, human MCF7 cells stimulated with 17β‐estradiol; format: cell-based; details: MCF7, read-out: IC50 MCF7 E2 stim.
[4] = molecular target: T1, wild‐type estrogen receptor 1 (ESR1) (Homo sapiens, UniProt P03372); assay: Wild‐type estrogen receptor 1; format: cell-based
T1 sequence (P03372 1-595): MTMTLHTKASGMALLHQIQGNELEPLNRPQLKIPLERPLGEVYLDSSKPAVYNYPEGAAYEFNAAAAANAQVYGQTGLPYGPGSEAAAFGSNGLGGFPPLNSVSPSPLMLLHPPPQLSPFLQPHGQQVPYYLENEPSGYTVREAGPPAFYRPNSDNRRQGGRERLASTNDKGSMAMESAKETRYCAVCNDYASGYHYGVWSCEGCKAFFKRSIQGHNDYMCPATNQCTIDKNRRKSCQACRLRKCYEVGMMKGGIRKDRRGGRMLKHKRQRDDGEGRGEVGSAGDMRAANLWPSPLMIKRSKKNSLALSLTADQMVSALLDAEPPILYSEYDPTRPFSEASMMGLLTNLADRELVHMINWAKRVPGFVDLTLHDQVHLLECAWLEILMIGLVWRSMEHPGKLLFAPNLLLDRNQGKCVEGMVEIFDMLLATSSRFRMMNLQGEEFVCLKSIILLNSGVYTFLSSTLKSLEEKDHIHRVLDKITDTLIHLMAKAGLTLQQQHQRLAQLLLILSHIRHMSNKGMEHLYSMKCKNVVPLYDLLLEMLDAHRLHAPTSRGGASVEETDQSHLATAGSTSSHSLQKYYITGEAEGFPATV

[5] = estimated; cited from earlier work
CDK2 = CDK2 (Homo sapiens, UniProt P24941); assay: Biochemical in vitro kinase assay CDK2
CDK9 = CDK9 (Homo sapiens, UniProt P50750); assay: Biochemical in vitro kinase assay CDK9
Sequence of CDK9 (P50750 whole entry): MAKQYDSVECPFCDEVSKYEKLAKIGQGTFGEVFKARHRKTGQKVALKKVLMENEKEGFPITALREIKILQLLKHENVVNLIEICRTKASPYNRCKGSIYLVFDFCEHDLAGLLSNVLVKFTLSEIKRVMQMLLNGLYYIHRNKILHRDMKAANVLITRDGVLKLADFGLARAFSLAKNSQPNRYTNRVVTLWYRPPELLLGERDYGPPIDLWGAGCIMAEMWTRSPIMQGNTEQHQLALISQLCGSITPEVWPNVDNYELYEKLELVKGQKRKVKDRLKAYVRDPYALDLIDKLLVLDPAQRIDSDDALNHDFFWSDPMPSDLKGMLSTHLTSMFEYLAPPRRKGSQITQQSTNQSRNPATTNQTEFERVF
Sequence of CDK9 (O60563 whole entry partner): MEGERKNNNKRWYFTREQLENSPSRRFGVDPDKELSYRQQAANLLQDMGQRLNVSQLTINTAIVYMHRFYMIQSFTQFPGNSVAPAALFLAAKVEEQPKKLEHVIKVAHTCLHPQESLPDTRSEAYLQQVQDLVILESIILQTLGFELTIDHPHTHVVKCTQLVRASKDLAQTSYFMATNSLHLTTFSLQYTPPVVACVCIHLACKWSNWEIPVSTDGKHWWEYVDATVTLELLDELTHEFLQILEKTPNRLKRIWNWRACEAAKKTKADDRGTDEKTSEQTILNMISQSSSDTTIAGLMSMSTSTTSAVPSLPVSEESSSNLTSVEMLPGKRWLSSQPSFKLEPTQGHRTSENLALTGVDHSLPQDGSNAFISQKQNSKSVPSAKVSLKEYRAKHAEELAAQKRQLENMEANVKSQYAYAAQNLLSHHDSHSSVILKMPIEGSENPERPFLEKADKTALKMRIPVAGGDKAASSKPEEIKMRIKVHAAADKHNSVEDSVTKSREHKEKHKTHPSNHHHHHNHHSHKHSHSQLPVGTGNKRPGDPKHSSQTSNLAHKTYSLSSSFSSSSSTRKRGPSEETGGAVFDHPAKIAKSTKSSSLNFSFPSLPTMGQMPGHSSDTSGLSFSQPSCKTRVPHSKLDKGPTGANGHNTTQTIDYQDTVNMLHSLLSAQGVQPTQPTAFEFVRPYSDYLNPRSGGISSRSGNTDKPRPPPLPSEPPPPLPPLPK

Sequence of CDK6/CycD3 (Q00534 whole entry): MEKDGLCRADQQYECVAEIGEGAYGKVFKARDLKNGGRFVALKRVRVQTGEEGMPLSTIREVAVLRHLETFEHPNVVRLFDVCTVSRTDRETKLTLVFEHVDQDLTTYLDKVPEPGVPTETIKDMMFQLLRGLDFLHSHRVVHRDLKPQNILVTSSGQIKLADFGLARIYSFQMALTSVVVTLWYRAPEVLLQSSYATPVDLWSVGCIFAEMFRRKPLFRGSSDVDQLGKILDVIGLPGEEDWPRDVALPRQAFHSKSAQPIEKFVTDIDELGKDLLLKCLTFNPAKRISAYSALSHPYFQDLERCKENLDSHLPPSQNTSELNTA
Sequence of CDK6/CycD3 (P30281 whole entry partner): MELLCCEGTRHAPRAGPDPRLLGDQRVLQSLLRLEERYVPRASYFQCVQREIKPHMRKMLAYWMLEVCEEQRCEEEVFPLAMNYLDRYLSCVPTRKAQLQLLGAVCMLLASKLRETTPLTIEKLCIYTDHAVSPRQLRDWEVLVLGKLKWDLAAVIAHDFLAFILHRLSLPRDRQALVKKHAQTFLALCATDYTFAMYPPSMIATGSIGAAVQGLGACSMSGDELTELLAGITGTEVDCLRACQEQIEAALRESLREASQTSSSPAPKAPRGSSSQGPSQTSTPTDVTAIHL
Sequence of CDK4/CycD3 (P11802 whole entry): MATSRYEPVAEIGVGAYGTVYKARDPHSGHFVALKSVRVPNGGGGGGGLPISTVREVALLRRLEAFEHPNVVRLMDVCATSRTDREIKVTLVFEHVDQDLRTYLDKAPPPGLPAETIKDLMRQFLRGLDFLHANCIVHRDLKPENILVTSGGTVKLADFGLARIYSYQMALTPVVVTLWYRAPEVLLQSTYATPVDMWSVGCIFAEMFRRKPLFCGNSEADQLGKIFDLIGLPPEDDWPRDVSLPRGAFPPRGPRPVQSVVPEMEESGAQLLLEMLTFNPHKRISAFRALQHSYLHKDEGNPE
Sequence of CDK4/CycD3 (P30281 whole entry partner): as the sequence (P30281 whole entry partner) above

Row | Structure (SMILES) | P app A→B (Caco2) [×10⁻⁶ cm/s] | chromatographic logD [1] | CLb hLMs [2] [mL/min/kg] | CLb rHep (rat hepatocytes) [mL/min/kg] | IC50 (A2780 cells) [nM] | efflux ratio at 90 min ([3]; Caco-2) | IC50 (CDK6/CycD3) [nM] | IC50 (MOLM‐13 cells) [nM] | IC50 (CDK4/CycD3) [nM] | IC50 (MCF7 cells) [nM] | permeability in either direction (P app A→B and P app B→A) (Caco2) | IC50 [4] [nM] | efflux ratio at 90 min ([3]; Caco-2, ER, Caco2 efflux ratio, P app B→A/P app A→B) | ER (Caco2; Caco2 efflux ratio, P app B→A/P app A→B) | IC50 (CDK2) [nM] | IC50 (CDK9) [nM] | aqueous solubility [5] [µg/mL]
1 | O=C(NC1CCNCC1)c1n[nH]cc1NC(=O)c1c(Cl)cccc1Cl [AT7519, reference compound] | 0.1 | 1.3 | 4 | 28.3 | 131 | – | – | – | – | – | – | – | – | – | – | – | –
2 | CN(C)C(=O)c1cc2cnc(Nc3ccc(N4CCS(=N)(=O)CC4)cn3)nc2n1C1CCCC1 [compound 26, 7‐Cyclopentyl‐2‐{[5‐(1‐imino‐1‐oxo‐1λ^6‐thiomorpholin‐4‐yl)pyridin‐2‐yl]amino}‐N,N ‐dimethyl‐7H‐pyrrolo[2,3‐d]pyrimidine‐6‐carboxamide] | 2.2 | 1.8 | 3.5 | 18.3 | – | 11 | > 1000 | 1150 | 216 | – | – | – | – | – | – | – | –
3 | CC(=O)c1c(C)c2cnc(Nc3ccc(N4CCS(=N)(=O)CC4)cn3)nc2n(C2CCCC2)c1=O [compound 23, 4‐[6‐({6‐Acetyl‐8‐cyclopentyl‐5‐methyl‐7‐oxo‐7 H,8H‐pyrido[2,3‐d]pyrimidin‐2‐yl}amino)pyridin‐3‐yl]‐1‐imino‐1λ^6‐thiomorpholin‐1‐one] | 2.5 | 2 | 4 | 18.3 | – | 9.1 | 240 | 128 | 101 | – | – | – | – | – | – | – | –
4 | C[C@]12CC[C@@H]3c4ccc(O)cc4C[C@@H](CCCCCCCCC[S@](=N)(=O)CCCC(F)(F)C(F)(F)F)[C@H]3[C@@H]1CC[C@@H]2O [compound 33, 7α‐{9‐[(S)‐(4,4,5,5,5‐Pentafluoropentyl)sulfonimidoyl]nonyl}estra‐1,3,5(10)‐triene‐3,17β‐diol] | – | 3.8 | 18.3 | 58.3 | – | – | – | – | – | 7.1 | no permeability in either direction | 1.8 | – | – | – | – | –
5 | CCCc1nc(C)c2c(=O)[nH]c(-c3cc(S(=O)(=O)N4CCS(=N)(=O)CC4)ccc3OCC)nn12 [compound 29, 4‐(4‐Ethoxy‐3‐{5‐methyl‐4‐oxo‐7‐propyl‐3 H,4H‐imidazo[4,3‐f][1,2,4]triazin‐2‐yl}benzenesulfonyl)‐1‐imino‐1λ^6‐thiomorpholin‐1‐one] | – | 2 | 7.17 | 35 | – | – | – | – | – | – | – | – | > 200 | 288 | – | – | –
6 | N=S1(=O)CCC(NC(=O)c2n[nH]cc2NC(=O)c2c(Cl)cccc2Cl)CC1 (stereo not drawn) [compound 15, 4‐(2,6‐Dichlorobenzamido)‐N‐(1‐imino‐1‐oxo‐1λ^6‐thian‐4‐yl)‐1H‐pyrazole‐3‐carboxamide] | 0.14 | 1.6 | 1 | 1 | 351 | 37 | – | – | – | – | – | – | – | – | 522 | 124 | –

More lines, main results first:

Row | P app A→B (Caco2) [×10⁻⁶ cm/s] | chromatographic logD [1] | CLb hLMs [2] [mL/min/kg] | CLb rHep (rat hepatocytes) [mL/min/kg] | IC50 (A2780 cells) [nM] | efflux ratio at 90 min ([3]; Caco-2) | IC50 (CDK6/CycD3) [nM] | IC50 (MOLM‐13 cells) [nM] | IC50 (CDK4/CycD3) [nM] | IC50 (MCF7 cells) [nM] | permeability in either direction (P app A→B and P app B→A) (Caco2) | IC50 [4] [nM] | efflux ratio at 90 min ([3]; Caco-2, ER, Caco2 efflux ratio, P app B→A/P app A→B) | ER (Caco2; Caco2 efflux ratio, P app B→A/P app A→B) | IC50 (CDK2) [nM] | IC50 (CDK9) [nM] | Structure (SMILES) | aqueous solubility [5] [µg/mL]
7 | 7 | 1.9 | 7.5 | 21.7 | – | – | – | 41 | – | – | – | – | – | – | – | – | CC(=O)c1c(C)c2cnc(Nc3ccc(N4CCNCC4)cn3)nc2n(C2CCCC2)c1=O [palbociclib, reference compound] | –
8 | 13.5 | 1.7 | 8.67 | 38.3 | – | – | – | 89 | – | – | – | – | – | – | – | – | CN(C)C(=O)c1cc2cnc(Nc3ccc(N4CCNCC4)cn3)nc2n1C1CCCC1 [ribociclib, reference compound] | –
9 | – | 4.2 | 20 | 58.3 | – | – | – | – | – | 9.2 | no permeability in either direction | – | – | – | – | – | C[C@]12CC[C@@H]3c4ccc(O)cc4C[C@@H](CCCCCCCCC[S+]([O-])CCCC(F)(F)C(F)(F)F)[C@H]3[C@@H]1CC[C@@H]2O (stereo partly drawn) [fulvestrant, reference compound] | ~0.01 (≈ 0.0165 µM)
10 | 20.6 | 2.6 | 18.3 | 50 | – | – | – | – | – | – | – | – | – | – | – | – | CCCc1nc(C)c2c(=O)[nH]c(-c3cc(S(=O)(=O)N4CCN(CC)CC4)ccc3OCC)nn12 [vardenafil, reference compound] | –
